Some test systems named below: SW-620; KM12; MOLT-4; SF-268; SNB-19; SN12C; UACC-62; RPMI-8226; M19-MEL; 786-0; SNB-75; COLO 205; SF-295; CAKI-1; IGROV-1; SF-539; LOX IMVI; MCF7; HOP-92; MDA-N.
Common to all, as to test: growth of human tumour cells (NCI), 48 h

SMILES strings stand for the structures.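 Growth conditions: 96-well plates. Treatment: test compound, 48 hours, 5 concentrations. Analysis: linear interpolation between bracketing concentrations; unreached endpoints set to highest concentration. Abbreviation: GI50, concentration required for 50% inhibition of growth.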 Calls of active or inactive are those of the source. Rule as the data show it: active = GI50 up to about 1.1 µM and inactive = higher.

Regarding `COc1ccc(/C=C2\Cc3ccccc3C2=O)cc1OC`, the GI50 in the assay with SW-620 is > 100 µM (inactive); in the assay on KM12 it was > 100 µM (inactive); in the assay on MOLT-4, > 100 µM (inactive); in the assay on SF-268 it was 45.3 µM (inactive); in the assay with SNB-19, > 100 µM (inactive); in the assay with SN12C, > 100 µM (inactive). Moreover, the GI50 in the assay on UACC-62 was > 100 µM (inactive); in the assay on RPMI-8226, > 100 µM (inactive); in the assay on M19-MEL it was > 100 µM (inactive); in the assay with 786-0 it was > 100 µM (inactive); in the assay with SNB-75, > 10 µM (inactive); with COLO 205 it was > 100 µM (inactive). The GI50 with SF-295 is 60.8 µM (inactive); with CAKI-1 it was > 100 µM (inactive); in the assay with IGROV-1, > 100 µM (inactive).
Regarding `COc1ccc(-c2cc(O)c3cc4c(cc3n2)OCO4)cc1`, the GI50 in the assay with SW-620 was > 100 µM (inactive); with MOLT-4, > 100 µM (inactive); in the assay on SF-268 it was > 100 µM (inactive); in the assay on SNB-19 it was 55.5 µM (inactive); in the assay with SN12C, > 100 µM (inactive); in the assay with UACC-62, > 100 µM (inactive). Moreover, the GI50 with RPMI-8226 is > 100 µM (inactive); with M19-MEL, > 100 µM (inactive); in the assay with 786-0, 73.1 µM (inactive); in the assay on SNB-75, 29.8 µM (inactive); in the assay on COLO 205, > 100 µM (inactive); in the assay with SF-539, > 100 µM (inactive). Also, the GI50 in the assay with SF-295 was 63.4 µM (inactive); in the assay with LOX IMVI it was > 100 µM (inactive); in the assay on IGROV-1, > 100 µM (inactive).
In the case of `Nc1nc(N)c(CCCCc2ccccc2)c(C=O)n1`, the GI50 in the assay on SW-620 is 11.7 µM (inactive); in the assay with KM12, 15.9 µM (inactive); in the assay on SF-268 it was 18.8 µM (inactive); with SNB-19, 16.1 µM (inactive); in the assay with SN12C, 19.1 µM (inactive); in the assay with UACC-62, 15.2 µM (inactive). Also, the GI50 in the assay on RPMI-8226 is 13.2 µM (inactive); with M19-MEL, 14.8 µM (inactive); in the assay on 786-0, 15 µM (inactive); in the assay on SNB-75 it was 12.7 µM (inactive); with COLO 205 it was 31.8 µM (inactive); in the assay with SF-539 it was 18.9 µM (inactive). In addition, the GI50 in the assay with SF-295 was 22 µM (inactive); in the assay with LOX IMVI, 14.8 µM (inactive); in the assay with CAKI-1 it was 27.3 µM (inactive); in the assay with IGROV-1, 17.8 µM (inactive).
On to `C=C(CO)C(=O)OC1CC(=C)C2CC(O)C(C)C2C2OC(=O)C(=C)C12` (stereo unspecified), for which the GI50 with SW-620 was 22.9 µM (inactive); in the assay with MCF7 it was 18.3 µM (inactive); with KM12, 18 µM (inactive); with MOLT-4 it was 25.2 µM (inactive); in the assay with SF-268, 20.7 µM (inactive); in the assay on SNB-19, 22.9 µM (inactive). Besides, the GI50 is 18.2 µM (inactive) in the assay with SN12C; 16.6 µM (inactive) in the assay with UACC-62; 24.5 µM (inactive) in the assay with RPMI-8226; 37.3 µM (inactive) with 786-0; 19 µM (inactive) with SNB-75; 32.4 µM (inactive) with HOP-92. Moreover, the GI50 in the assay with COLO 205 is 34.2 µM (inactive); with SF-539, 18 µM (inactive); in the assay on MDA-N it was 19.3 µM (inactive); with SF-295, 19.4 µM (inactive); with LOX IMVI, 29.9 µM (inactive); in the assay with CAKI-1, 19.3 µM (inactive). Moreover, the GI50 in the assay with IGROV-1 is 18.9 µM (inactive).
As for `CCC1=CCN(c2cc(C)ccn2)OC1c1ccccc1` (stereo unspecified), the GI50 with SW-620 is 32.2 µM (inactive); in the assay on KM12, 30.9 µM (inactive); in the assay on MOLT-4 it was 34.5 µM (inactive); in the assay on SF-268, 86.5 µM (inactive); in the assay with SNB-19, 81.3 µM (inactive); in the assay on SN12C, 34.6 µM (inactive). Moreover, the GI50 is 39.2 µM (inactive) in the assay on UACC-62; 19.1 µM (inactive) with RPMI-8226; 34.4 µM (inactive) with M19-MEL; 45.9 µM (inactive) with 786-0; 45.6 µM (inactive) in the assay with SNB-75; 40.6 µM (inactive) in the assay on COLO 205. The GI50 in the assay with SF-539 is > 100 µM (inactive); in the assay with SF-295 it was 39.3 µM (inactive); with LOX IMVI, 30.9 µM (inactive); in the assay on CAKI-1, 66.1 µM (inactive); in the assay with IGROV-1 it was 67.8 µM (inactive).
For `C=CCCOC(=O)CO[N+](=O)[O-]`, the GI50 in the assay with SW-620, with KM12, in the assay with MOLT-4, with SF-268, with SNB-19 and with SN12C was > 100 µM (inactive) throughout. Besides, the GI50 in the assay on RPMI-8226, with M19-MEL, with 786-0, with SNB-75, in the assay with COLO 205 and in the assay on SF-539 was > 100 µM (inactive) each time. The GI50 with SF-295, with LOX IMVI, with CAKI-1 and with IGROV-1 was > 100 µM (inactive) throughout.
For the compound `Cc1cc2c(=O)c3ccccc3[nH]c2c(C(N)=O)c1C`, the GI50 in the assay with SW-620, with KM12, in the assay on MOLT-4, in the assay with SF-268, with SNB-19 and in the assay on SN12C was > 100 µM (inactive) each time. In addition, the GI50 in the assay on UACC-62, in the assay with RPMI-8226, in the assay on M19-MEL, with 786-0, with SNB-75 and with COLO 205 was > 100 µM (inactive) in each case. The GI50 in the assay with SF-539, in the assay on SF-295, in the assay with LOX IMVI, with CAKI-1 and in the assay with IGROV-1 was > 100 µM (inactive) throughout.
As for `CCOC(=O)[C@H](Cc1ccccc1)NC(=O)c1nc[nH]c1[N+](=O)[O-]`, the GI50 with SW-620, in the assay on KM12, in the assay on MOLT-4, with SF-268, in the assay with SNB-19 and in the assay on SN12C was > 100 µM (inactive) throughout. Moreover, the GI50 with UACC-62, with RPMI-8226, in the assay on M19-MEL, with 786-0, with SNB-75 and in the assay with COLO 205 was > 100 µM (inactive) in each case. Further, the GI50 with SF-539, with SF-295, in the assay on LOX IMVI, in the assay with CAKI-1 and in the assay on IGROV-1 was > 100 µM (inactive) throughout.
For the compound `C[C@H]1COC2=C1C(=O)C(=O)c1c2ccc2c1CCCC2(C)C` [CRYPTOTANSHINONE], the GI50 is 1.73 µM (inactive) in the assay on SW-620; 2.22 µM (inactive) with MCF7; 2.19 µM (inactive) in the assay with KM12; 4.24 µM (inactive) in the assay on MOLT-4; 1.9 µM (inactive) in the assay with SF-268; 2.52 µM (inactive) in the assay on SNB-19. Moreover, the GI50 is 4.37 µM (inactive) in the assay with SN12C; 2.03 µM (inactive) in the assay on UACC-62; 3.31 µM (inactive) in the assay on RPMI-8226; 3.42 µM (inactive) with 786-0; 0.881 µM (active) with SNB-75; 40.8 µM (inactive) with HOP-92. Also, the GI50 with COLO 205 was 1.15 µM (inactive); in the assay with SF-539, 3.35 µM (inactive); in the assay with MDA-N, 1.61 µM (inactive); in the assay with SF-295, 1.68 µM (inactive); in the assay on LOX IMVI, 2.52 µM (inactive); in the assay with CAKI-1, 8.22 µM (inactive). Moreover, the GI50 in the assay on IGROV-1 is 2.71 µM (inactive).
